Experiments:
Type in all cases: cell-based, human
HeLa cells [1] = assay: Intracellular delivery of fluorescein labelled anionic polypeptide, fluorescent microscopy; settings: 1 μM labelled polyanion in the presence of 25 μM compound (1)
HeLa cells [2] = assay: Transfection of HeLa cells with pCMVL, luciferase assay
Protocol: The cells were resuspended in fresh medium and placed either in 24-well plates (5×10^4 cells per well) or in 6-well plates (2-2.5×10^4 cells per well). Just before transfection, the cells were placed in fresh medium with or without 10% FCS. In general, cells were transfected at 50 to 70% confluence. […] Cell debris was removed by centrifugation (14000 rpm for 2 min). Usually, enzyme activity (see below) was determined directly after cell lysis.
Plasmid DNA (from a stock solution of a concentration of about 1 mg/ml) and cationic lipids (from a stock solution of a concentration 1 to 2 mg/ml) were diluted separately in 1.5 ml Eppendorf tubes with 10 mM Hepes, 0.9% NaCl buffer, pH 7.4, to the final volume of 100 μl. The amount of DNA in typical transfections varied from 1 to 2 μg per 100 μl. The amount of a cationic lipid varied from 0 to 20 μg per 100 μl. Two solutions were mixed together to form a DNA-lipid solution. After incubation for 10 min at room temperature the resultant DNA-lipid solution was added to the cell cultures, growing as described before, and gently mixed. Alternatively, the DNA-lipid solution was diluted with 800 μl (for 24- or 6-well plates) of the appropriate medium (+/−FCS) and mixed. The diluted solution was then overlayed onto the cells, rinsed with the appropriate medium. […] A typical incubation time in the absence of serum was 4 hours. The transfection medium was then substituted with a complete growth medium. In the presence of serum, the transfection medium was usually not replaced and the cells continued to grow in the presence of complexes until the end of experiments (one step transfection).
Luciferase assay. […] The luciferase assay was performed by adding 5 to 10 μl of cell extract.
Just before transfection, the medium was removed and cells were supplied with 1 ml fresh medium with or without serum. […] In the absence of serum, the transfection medium was removed after 4 hours, and the cells were supplied with 1 ml fresh serum supplemented medium. […]

HeLa cells [3] = assay: Intracellular delivery of fluorescein labelled phosphothioate oligonucleotide, fluorescent microscopy
Protocol: HeLa cells (plated one day before the experiment, 2×10^5 cells per well, 6-well plate) were grown on glass microscope slides in 2 ml of RPMI 1640 supplemented with 10% FCS. Before the experiment, the medium was replaced with RPMI 1640 without serum.
Formation of oligonucleotide-compound (1) complexes was done as follows. 10 μg of phosphothioate oligonucleotide was dissolved in […] of transfection buffer. 16 μg and 50 μg of compound (1) were diluted with transfection buffer to the final volume of 100 μl. The two solutions were mixed together and incubated for 10 min. Oligonucleotide solution without compound (1) was diluted with 100 μl of transfection buffer. The resultant solutions (200 μl per well) were added to the cell cultures (final concentration of oligonucleotide was about 1 μM, compound (1) 8 μM and 25 μM). The complexes were incubated with the cells for 4 hours. The medium was then substituted with a complete growth medium.
At 4 and 24 hours, cells were washed three times with PBS and fixed with 1% glutaraldehyde solution for 15 min. After fixation, cells were washed three times with PBS and mounted in glycerol mounting solution (10 mM phosphate, 150 mM NaCl, 70% glycerol, pH 7.5). The localization of fluorescein labelled phosphothioate oligonucleotide was determined by fluorescent microscopy, using a Zeiss fluorescent microscope.

K562 cells = assay: Transfection of K562 suspension cells with pCMVL, luciferase assay; settings: K562, presence of serum
Protocol: HeLa (CCL2, epitheloid carcinoma, human), COS-7 (CRL 1651, kidney, SV-40 transformed, African green monkey), HT-29 (HTB 38, adenocarcinoma, colon, human), CV-1 (CCL 70, kidney, African green monkey), 818-4 (adenocarcinoma, pancreas, human), H4IIE (CRL 1548; hepatoma, rat), K562 (CCL 243; chronic myelogenous leukemia, human), HL-60 (CCL 240; promyelotic leukemia, human) were grown in 5% CO2 at 37° C. on plastic tissue culture flasks in RPMI 1640 or DMEM with 10% fetal calf serum and supplemented with penicillin at 100 units per ml, streptomycin at 100 μg per ml, 2 mM glutamine and 0.1 μM dexamethasone for H4IIE cells.
At 24 hours before transfection, the cells were placed in fresh complete growth medium. Just before transfection, the cells were collected, resuspended in fresh medium with or without 10% FCS at 0.25×10^6 cells per ml, and placed in 24-well plates, 2 ml per well.
The cells were normally harvested 24 hours after transfection (the time of harvesting is an important variable and should be optimized), collected by centrifugation and resuspended in 10 ml of PBS, again centrifuged, and the cell pellet was transferred into a 1.5 ml Eppendorf tube with 1 ml PBS. The cells were centrifuged in the Eppendorf centrifuge (14000 rpm for 20 sec), The resulting cells were lysed in 100 μl of lysis buffer (described above). […]

Row | Compound | fluorescence of cells (HeLa cells [1]; after 45 min) | fluorescence of cells (HeLa cells [1]; after 24 hours) | transfection in comparison to DOTAP transfection (HeLa cells [2]; absence of serum) [fold] | transfection in comparison to DOTAP transfection (HeLa cells [2]; presence of serum) [fold] | time after which the same luciferase activity (4.5×10^4 light units) was observed (HeLa cells [2]; with serum) [hours] | fluorescence intensity at 25 μM compared with 8 μM compound (1) (HeLa cells [3]; 1 μM fluorescein labelled oligonucleotide) | fluorescence of cells (HeLa cells [3]; 1 μM fluorescein labelled oligonucleotide in the presence of compound (1) (8 μM and 25 μM), 4 hours) | fluorescence of cells (HeLa cells [3]; 1 μM fluorescein labelled oligonucleotide in the presence of compound (1), after 24 hours) | transfection higher than obtained with DOTAP (K562 cells) | fluorescence of cells (HeLa cells [3]; 1 μM fluorescein labelled oligonucleotide alone, after 4 and 24 hours, without serum) | effect of serum on fluorescence and distribution (HeLa cells [3]; experiments performed in the presence of serum)
1 | CCCCCCCC/C=C\CCCCCCCC(=O)OCCN(CCOC(=O)CCCCCCC/C=C\CCCCCCCC)C(=O)[C@@H](N)CCCCN.Cl.Cl [Compound 1, L-Lysine-bis(O,O′-oleoyl-β-hydroxyethyl)amide dihydrochloride] | bright cytoplasmic punktate fluorescence | very bright punktate fluorescence in the cytoplasm | 6 | 12 | 3 | higher | very bright punktate fluorescence in the cytoplasm | very clear punktate fluorescence in the cytoplasm | more than 10 fold | – | –
2 | 5′-ACT TGG ATA CGC ACG-fluorescein-3 [fluorescein labelled oligonucleotide, reference compound] | – | – | – | – | – | – | – | – | – | faint fluorescence | did not change the overall fluorescence and distribution

Reference: US6458381B1, “Lipids and their use, for example, in liposomes” (priority 1996, dated 2002)
